Data on one compound can be found in patent publication US9839614B2, “Nanoparticle and polymer formulations for thyroid hormone analogs, antagonists, and formulations and uses thereof” (NANOPHARMACEUTICALS LLC, priority 2009, dated 2017).

In data set [1] the test system is doxorubicin-resistant MCF7/R tumors. Put plainly: Doxorubicin-resistant tumors in nude mice. Type of data set: in vivo. The protocol:
Mice were injected with doxorubicin-resistant MCF7/R cells (10^6) and after 10 days, they were assigned into groups of seven mice each and challenged with doxorubicin (2 mg/kg) or Tetrac (30 mg/kg) either alone or in combination. Tumor volume was measured every 3 days for up to three weeks.

The subject of data set [2] is matrigel plug angiogenesis. Put plainly: Mouse matrigel model of angiogenesis (plug hemoglobin). Type of data set: in vivo, mice (C57BL/6NCr). Here is the method: Normal male mice (C57BL/6NCr) 6-8 weeks of age and weighing ˜20 g were purchased from Taconic farm. Animals were housed 4 per cage, in controlled conditions of temperature (20-24° C.); humidity (60-70%) and 12 hrs. light/dark cycle provided with food and water ad libitum. […] Aliquots of matrigel were placed into cold polypropylene tubes to prevent the matrigel from solidifying and the angiogenesis promoter added to matrigel with or without agonist. Mice were treated daily. Matrigel was subcutaneously injected as triple injection per animal at 100 μL/animal. At day 14 post plug implant all animals were killed in CO2 chamber and matrigel plugs were collected. Plug hemoglobin content was analyzed from three implants/mice (n=6 per group) to measure angiogenesis.
The matrigel plugs dissected from the mice were carefully stripped of any remaining peritoneum. The plugs were placed into 0.5 mL tube of ddH2O and homogenized for 5-10 min. […] Absorbance was read with a Microplate Manager ELISA reader at 540 nm. […] Hemoglobin concentration is a reflection of the number of blood vessels in the plugs.

Data set [3] relates to P-gp, GST and SOD in MCF7/R cells. Briefly: Western blot of drug resistance genes. Type of data set: cell-based. Conditions: 24 h. The protocol: FIG. 15A is a Western blot showing the expression of P-gp, GST and SOD in wild type (W) drug sensitive and resistant (R) MCF7 cells.
The cells were treated for 24 h with each drug alone or the combination of both, after that, expression of drug resistance molecules was determined by Western blot using specific antibodies.

The subject of data set [4] is human MTC cells gene expression. Put plainly: RNA microarray analysis of h-MTC cells. Type of data set: cell-based.
Description: Technical aspects of microarray studies, stringent quality control of microarray studies and statistic analysis of gene expression were as described previously. […] In brief, the array hybridization and processing, data retrieval and the analysis were carried out with standard sets of Affymetrix (Santa Clara, Calif.) equipment, software and protocols in an Affymetrix microarray core facility. RNA was extracted from cell cultures of two independent biological replicates of each experimental condition and analyzed for sample purity and integrity, using BioAnalyzer instrumentation (Agilent, Santa Clara, Calif.). Expression analysis of 54,675 transcripts was conducted for each sample, using Affymetrix HG-U133A Plus 2.0 arrays. Data retrieval and analysis was completed by MAS5.0 software. Concordant changes of gene expression for each experimental condition were determined at the statistical threshold P value, <0.01 (two-tailed t test).
Data set [5] relates to SKN-SH, SaOS2 and MCF7 cells, drug-sensitive and -resistant. Put plainly: Proliferation of drug-sensitive versus drug-resistant cancer cells (MTT assay). The format is cell-based. Conditions: 4 days. Here is the method: Drug-sensitive and -resistant SKN-SH (FIGS. 13C-D), SaOS2 (FIGS. 13A-B), and MCF7 (FIGS. 13E-F) cells were subjected to treatment with increasing concentrations of Tetrac or Doxirubicin over a period of 4 days. Cell viability was then measured by MTT assay. The data represent the average of 4 determinations±SE.
Doxorubicin resistant SKN-SH/R, MCF7/R and SaOS2/R cells were subjected to treatment with Tetrac either alone or in combination with each of doxorubicin (Dox), etoposide (Etop), cisplatin (Cisp), or trichostatin A (TSA) at the indicated concentrations, After 4 days in cell viability was determined by the MTT assay and the data represented as average of 3 determinations±SE.

The next data set concerns MCF7 and MCF7/R cells. Put plainly: Intracellular accumulation of radiolabeled doxorubicin. Type of data set: cell-based. Conditions: 24 hours, presence of Tetrac. The protocol:
The cells were incubated for 24 hours with doxorubicin in the absence or the presence of Tetrac, after that they were washed and then solubilized. Radioactivity associated with the cell lysates was counted and compared between the two cell lines either treated or not with Tetrac. The data represent an average of 3 determinations±SE.

Data set [6] concerns chick chorioallantoic membrane (CAM) blood vessel branching. Briefly: Chorioallantoic membrane (CAM) model of angiogenesis. The format is in vivo. The protocol:
In vivo neovascularization was examined by methods described previously. 9-12 Ten-day-old chick embryos were purchased from SPAFAS (Preston, Conn.) and incubated at 37° C. with 55% relative humidity. A hypodermic needle was used to make a small hole in the shell concealing the air sac, and a second hole was made on the broad side of the egg, directly over an avascular portion of the embryonic membrane that was identified by candling. A false air sac was created beneath the second hole by the application of negative pressure at the first hole, causing the CAM to separate from the shell. A window approximately 1.0 cm^2 was cut in the shell over the dropped CAM with a small-crafts grinding wheel (Dremel, division of Emerson Electric Co.), allowing direct access to the underlying CAM. […] Sterile disks of No. 1 filter paper (Whatman International) were pretreated with 3 mg/mL cortisone acetate and 1 mmol/L PTU and air dried under sterile conditions. Thyroid hormone, hormone analogs, FGF2 or control solvents, and inhibitors were then applied to the disks and the disks allowed to dry. The disks were then suspended in PBS and placed on growing CAMs. […] At 24 hours, the MAPK cascade inhibitor PD 98059 was also added to CAMs topically by means of the filter disks.
After incubation at 37° C. with 55% relative humidity for 3 days, the CAM tissue directly beneath each filter disk was resected from control and treated CAM samples. Tissues were washed 3× with PBS, placed in 35-mm Petri dishes (Nalge Nunc), and examined under an SV6 stereomicroscope (Zeiss) at X50 magnification. Digital images of CAM sections exposed to filters were collected using a 3-charge-coupled device color video camera system (Toshiba) and analyzed with Image-Pro software (Media Cybernetics). The number of vessel branch points contained in a circular region equal to the area of each filter disk were counted. One image was counted in each CAM preparation, and findings from 8 to 10 CAM preparations were analyzed for each treatment condition (thyroid hormone or analogs, FGF2, FGF2 antibody, PD 98059). In addition, each experiment was performed 3 times. The resulting angiogenesis index is the mean±SEM of new branch points.

Data set [7] deals with human medullary carcinoma of the thyroid (MTC) xenografts. Put plainly: MTC xenograft in nude mice. Conditions: over the course of administration.
Description: Human medullary carcinoma cells (TT, Catalog No. CRL-1803) were purchased from American Type Culture Collection (Manassas, Va.) and cultured as instructed by the supplier, using a complete growth medium consisting of F-12K medium with 10% FBS. Cells were cultured in 5% CO2/air atmosphere at 37 C to sub-confluence and then treated with 0.25% (w/v) trypsin/EDTA to affect cell release from the culture vessel. After washing with culture medium, the cells were suspended in DMEM (free of phenol red and FBS) and counted. • Tetrac versus tetrac NP distribution in h-MTC. […] Female NCr nude homozygous mice aged 5-6 weeks and body weights of 20 g were purchased form Taconic Farms (Hudson N.Y.). Animals were maintained under specific pathogen-free conditions and housed 4 animals per cage, under controlled conditions of temperature (20-24° C.) and humidity (60-70%) and a 12 h light/dark cycle. Water and food were provided ad libitum.
Data set [8] concerns Human medullary carcinoma of the thyroid (MTC) cells. Put plainly: Tumor growth and angiogenesis in the CAM cancer implant model. Type of data set: in vivo, chick. Conditions: 1 μg/CAM, 8 days, n=8. An excerpt: Penicillin streptomycin (1%) was present in both culture media. […] Water and food were provided ad libitum.
The target in the next data set is TTR (Homo sapiens, UniProt P02766). Conditions: cited from earlier work.

Turning to `O=C(O)Cc1cc(I)c(Oc2cc(I)c(O)c(I)c2)c(I)c1` [Tetrac, tetraiodothyroacetic acid], in data set [1] (Tetrac 30 mg/kg), the “growth of drug resistant tumors” value is given as “effective in suppressing the growth of drug resistant tumors” and the toxic effect result is “without any noticeable toxic effect”. Further, the doxorubicin-sensitivity in vivo entry in [1] (Tetrac with doxorubicin 2 mg/kg) is given as “not restored”. The “Mean inhibition of angiogenesis (%)” value in [2] (FGF 100 ng + Tetrac or analog 10 μg/plug) turned out to be 90 ± 13%. In addition, the “Mean inhibition of angiogenesis (%)” value in [2] (T4 + antagonist, each 10 μg/matrigel plug) is recorded as 89 ± 11%. Besides, in [2] (Tetrac 10 μg), the “inhibition of FGF induced angiogenesis” value is 85%. In addition, the “inhibition of FGF induced angiogenesis” value in data set [2] (Tetrac 30 μg) was 91%. For the same compound, the “expression of P-glycoprotein, SOD, and GST-π” value in data set [3] is reported as “none of these genes was significantly altered”. Moreover, in data set [4], the VEGFA expression result is listed as “significantly decreased expression”; the “expression of apoptosis genes (CASP2, DFFA, FAF1, CASP8AP2)” value is listed as “caused expression of genes associated with induction of apoptosis”; the “thrombospondin (THBS1) gene expression” value is recorded as “concomitant increase”. For the same compound, the “anti-proliferative activity against drug-sensitive and drug-resistant cells” value in data set [5] (MTT) is on record as “equivalent anti-proliferative activity”. Besides, the “cellular responses to doxorubicin, etoposide, cisplatin and TSA combined with Tetrac” value in data set [5] (resistant cells) is “significantly enhanced”. For the same compound, the “intracellular accumulation of radiolabeled doxorubicin” value with MCF7 and MCF7/R cells is listed as “increased significantly”. Further, in data set [6] (FGF (1.25 μg/ml) + Tetrac or analog at 10 μg/plug), the “Mean % Inhibition” value is on record as 85%. Besides, the “effect on action of T4 on angiogenesis” value in data set [6] (Tetrac 0.1 μmol/L with T4) is listed as “inhibited the action of T4”. For the same compound, the “effect of Tetrac alone on angiogenesis” value in data set [6] (Tetrac alone) was “no effect on angiogenesis”. For the same compound, in [6] (Tetrac with T4-agarose 0.1 μmol/L), the “effect on action of T4-agarose on angiogenesis” value is listed as “inhibited”. Further, in data set [7], the “decrease in tumor tissue hemoglobin content” value worked out at 66%. In data set [8], the tumor growth result is given as “effective inhibition” and the tumor-mediated angiogenesis result is listed as “significant inhibition”. Further, the “affinity of TTR for Tetrac relative to that for T4” value on TTR is 100 times.
